Test results published in patent US12448362B2, “Fluorine-containing pyrimidine compound and fluorine-containing pyrimidinone compound” (UNIMATEC CO., LTD., priority 2020, dated 2025).

System: cucumber powdery mildew
Assay: Evaluation test for cucumber powdery mildew (cucumber leaf disc, lesion area after 14 days)
Type: in vivo
Conditions: 500 ppm in acetone; cucumber leaf disc sprayed with spore suspension; 25° C., 12 hours illumination; lesion area after 14 days vs untreated section
Experimental: Each of the fluorine-containing pyrimidine compounds prepared in Examples 32 and 36 was dissolved in acetone and diluted to a concentration of 500 ppm. Subsequently, a cucumber leaf disc (20 mm in diameter) was put into the diluted acetone solution and completely wetted, and then the cucumber leaf disc was placed so that the back surface of the cucumber leaf disc was in contact with a plain agar medium that had been prepared separately, and air-dried. After air-drying, a spore suspension of the cucumber powdery mildew was uniformly sprayed on the cucumber leaf disc and air-dried. The cucumber leaf disc was then left in a thermostat (25° C., 12 hours illumination), and after 14 days, the area of lesions was examined to calculate the control value. Note that the control value was calculated according to the following formula. In the following formula, “untreated” means that a cucumber leaf disc was wetted with only acetone as a test solution, and “untreated section” means a section of the wetted cucumber leaf disc. [formula]

SMILES | Control value
Cc1ccc(Nc2nc(-c3cccnc3)nc(Cl)c2C(F)(F)F)cc1 [Example 36, 6-chloro-N-(4-methylphenyl)-2-(3-pyridyl)-5-(trifluoromethyl)-4-pyrimidinamine] | 67.9
Cc1ccc(Nc2nc(-c3ccccn3)nc(Cl)c2C(F)(F)F)cc1 [Example 32, 6-chloro-N-(4-methylphenyl)-2-(2-pyridyl)-5-(trifluoromethyl)-4-pyrimidinamine] | 57.1
